# Assay results from the supplement of paper PMC10307832.
# How the values were obtained:
# Test in all cases: relative viability (nuclei count vs DMSO), 5 days (fraction); higher = more cells survive
# XMD14-99 + Dasatinib = compound: CN1CCN(CC1)C2=CC(=C(C=C2)NC3=NC(=C(S3)C(=O)C4=C(C=CC=C4Cl)Cl)N)OC [XMD14-99] + Cc1nc(Nc2ncc(C(=O)Nc3c(C)cccc3Cl)s2)cc(N2CCN(CCO)CC2)n1 [Dasatinib] (partner 0.075 µM)
# Method in brief: (§1)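 Each reported value is a median over duplicate plates. It expresses relative viability: treated-well nuclei count divided by vehicle-well nuclei count. Lung cancer cell lines in 1536-well plates were dosed by pin tool a day after seeding, alone with one drug or with a fixed anchor-drug dose plus five library-drug doses (not always all listed) in √10 steps, and nuclei were counted after 5 days.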
# AZD1208 + Foretinib = compound: N[C@@H]1CCCN(c2c(/C=C3\SC(=O)NC3=O)cccc2-c2ccccc2)C1 [AZD1208] + COc1cc2c(Oc3ccc(NC(=O)C4(C(=O)Nc5ccc(F)cc5)CC4)cc3F)ccnc2cc1OCCCN1CCOCC1 [Foretinib] (partner 0.25 µM)
# Method in brief: as §1
# AZD1208 + Crizotinib = compound: N[C@@H]1CCCN(c2c(/C=C3\SC(=O)NC3=O)cccc2-c2ccccc2)C1 [AZD1208] + C[C@@H](Oc1cc(-c2cnn(C3CCNCC3)c2)cnc1N)c1c(Cl)ccc(F)c1Cl [Crizotinib] (partner 1 µM)
# Method in brief: as §1
# XMD14-99 + Alpelisib = compound: CN1CCN(CC1)C2=CC(=C(C=C2)NC3=NC(=C(S3)C(=O)C4=C(C=CC=C4Cl)Cl)N)OC [XMD14-99] + Cc1nc(NC(=O)N2CCC[C@H]2C(N)=O)sc1-c1ccnc(C(C)(C)C(F)(F)F)c1 [Alpelisib] (partner 2 µM)
# Method in brief: as §1
Cell Line,relative viability (XMD14-99 + Dasatinib; first compound 0.08 µM),relative viability (XMD14-99 + Dasatinib; first compound 0.8 µM),relative viability (XMD14-99 + Dasatinib; first compound 2.53 µM),relative viability (XMD14-99 + Dasatinib; first compound 8 µM),relative viability (AZD1208 + Foretinib; first compound 0.08 µM),relative viability (AZD1208 + Foretinib; first compound 0.253 µM),relative viability (AZD1208 + Foretinib; first compound 0.8 µM),relative viability (AZD1208 + Foretinib; first compound 2.53 µM),relative viability (AZD1208 + Foretinib; first compound 8 µM),relative viability (AZD1208 + Crizotinib; first compound 0.08 µM),relative viability (AZD1208 + Crizotinib; first compound 0.253 µM),relative viability (AZD1208 + Crizotinib; first compound 0.8 µM),relative viability (AZD1208 + Crizotinib; first compound 2.53 µM),relative viability (AZD1208 + Crizotinib; first compound 8 µM),relative viability (XMD14-99 + Alpelisib; first compound 0.08 µM),relative viability (XMD14-99 + Alpelisib; first compound 0.8 µM),relative viability (XMD14-99 + Alpelisib; first compound 2.53 µM),relative viability (XMD14-99 + Alpelisib; first compound 8 µM)
NCI-H322M,0.275,0.252,0.257,0.248,0.925,0.873,0.869,0.966,0.996,1.14,0.972,0.975,0.607,0.974,0.889,0.709,0.64,0.767
NCI-H358,0.157,0.175,0.151,0.141,0.594,0.692,0.573,0.698,0.522,0.537,0.559,0.499,0.566,0.438,0.751,0.841,0.715,0.304
NCI-H441,0.537,0.493,0.463,0.504,1.1,0.761,0.764,0.712,0.718,0.73,0.674,0.667,0.526,0.42,0.773,0.598,0.68,0.706
NCI-H460,0.497,0.545,0.475,0.475,0.992,1.09,0.978,0.987,1.11,0.912,1.17,0.854,0.709,0.871,0.36,0.419,0.431,0.197
NCI-H520,0.171,0.21,0.176,0.169,0.746,0.754,0.656,0.612,0.396,0.77,0.833,0.711,0.582,0.439,0.83,0.843,0.83,0.707
NCI-H596,0.597,0.604,0.572,0.562,0.882,0.912,0.806,0.865,0.673,0.853,1.04,0.837,0.955,0.711,0.503,0.587,0.477,0.568
NCI-H647,0.12,0.216,0.202,0.167,1.07,1.25,1.04,1.16,0.897,0.953,1.09,0.894,0.906,0.757,1.05,1.07,0.937,0.933
NCI-H650,0.467,0.422,0.451,0.356,1.03,1.03,0.977,0.9,0.829,0.704,0.723,0.577,0.576,0.643,1.15,0.982,0.922,0.922
